Laboratory results taken from patent US20120070445A1, “BRAIN-DERIVED GONADOTROPINS AND COGNITION” (priority 2006, published 2012).

Assays:
LH = experiment: Serum LH and pituitary LHβ mRNA after leuprolide acetate; format: in vivo, Tg2576 mice
Tg2576 mice [1] = details: APP transgenic mice, recent study; cited from earlier work
C57/B6 female mice [2] = experiment: Morris Water Maze in ovariectomized mice (training and probe trial); format: in vivo; details: for length of time taken to locate the invisible platform across days (rescue of OVX-associated cognitive decline): OVX mice, three training days
Experimental: (Significance indicated by: *=P+S vs E+S; #=P+S vs P+L; $=P+S vs SHAM; %=P+S vs E+L; at p<0.05).
Additionally, to further determine the memory function and training success in the animals we measured the capacity of the animals to retain the information learned using a probe trial. In this regard, at the end of the last day of training we removed the platform and let the animals swim for 1 minute.

C57/B6 female mice [3] = experiment: Y-maze in ovariectomized mice with or without estrogen replacement; format: in vivo; details: OVX mice
Aβ [4] = experiment: Hippocampal Aβ burden (% area stained) in Tg2576 mice; format: in vivo; details: vs saline-treated, p<0.05
From the text: Scale bar, 200 μm. […] In this initial study we used aged animals to 1) circumvent the estrogen issue, since aged mice, like humans show estropause and 2) to examine the effects of LH ablation once the disease is well established.

Tg2576 mice [5] = experiment: Y-maze performance in aged Tg2576 mice; format: in vivo; details: 21 month old Tg2576 female mice, 3 months treatment vs placebo/saline, p<0.01
Aβ [6] = details: APP transgenic mice, recent study; cited from earlier work
AD patients = details: high doses, completed phase II trial; cited from earlier work
[7] = Body weight 3 months post-surgery + replacement + drug treatment
From the text: In addition we added a SHAM ovariectomized group that received saline and a placebo pallet (n=10). During the last two weeks of the study all animals have been tested for Y-maze and Morris Water Maze performance.

Row | Compound | serum LH (LH; Tg2576 mice, vs saline, P<0.02) | LHβ mRNA expression in the pituitary (LH; mice, 6 and 8 week treatment vs saline) | Y-maze performance (Tg2576 mice [1]) | length of time taken to locate the invisible platform across days (rescue of OVX-associated cognitive decline) (C57/B6 female mice [2]) | learning rate in Morris Water Maze (C57/B6 female mice [2]; independent of replacement regimen, vs saline, p=0.027) | latency to enter NE quadrant, probe trial (C57/B6 female mice [2]; regardless of replacement regimen, 0.041) | distance swam in NE quadrant, probe trial (C57/B6 female mice [2]; regardless of replacement regimen, p=0.003) | number of platform crossings, probe trial (C57/B6 female mice [2]; regardless of replacement regimen, p=0.004) | latency to enter platform location, probe trial (C57/B6 female mice [2]; regardless of replacement regimen, p=0.005) | Y-maze performance (C57/B6 female mice [3]; leuprolide acetate 7.5 mg/kg for 3 months vs saline, specific to placebo replaced group (p=0.005)) | Aβ burden, % area stained in the entire hippocampus (Aβ [4]) | cognitive decline (Y-maze % alternations, change from baseline) (Tg2576 mice [5]) | amyloid-β load in the hippocampus (Aβ [6]) | cognitive impairment and activities of daily living (AD patients) | Body weight ([7]; OVX + Estrogen, Saline, 3 months post-surgery) | body weight of OVX+estrogen replaced group compared with SHAM ([7]; irrespective of drug treatment) | Y-maze performance, estrogen-replaced vs placebo replaced (C57/B6 female mice [3]; saline-treated, t=1.841, p=0.07)
1 | CCNC(=O)[C@@H]1CCCN1C(=O)[C@H](CCCNC(=N)N)NC(=O)[C@H](CC(C)C)NC(=O)[C@@H](CC(C)C)NC(=O)[C@H](Cc1ccc(O)cc1)NC(=O)[C@H](CO)NC(=O)[C@H](Cc1c[nH]c2ccccc12)NC(=O)[C@H](Cc1c[nH]cn1)NC(=O)[C@@H]1CCC(=O)N1 [leuprolide acetate] | significant decline in serum LH | clear decrease in the expression of LHβ mRNA | improves Y-maze performance | as effective as estrogen in rescuing OVX-associated cognition decline | learned at a faster rate | entered that quadrant earlier | swam longer distances | crossed it more times | crossed the invisible platform region more earlier | significantly improved Y-maze performance | significantly lower | significantly attenuates cognitive decline | decreases amyloid-β load | stabilization in cognitive impairment and activities of daily living | – | – | –
2 | Estrogen | – | – | – | rescued by estrogen replacement | – | – | – | – | – | – | – | – | – | – | 23.5 | not different from the SHAM operated group | strong trend
